Source: patent publication US8679766B2, “E-cadherin as a biomarker of gastroesophageal reflux disease” (The University of North Carolina at Chapel Hill, priority 2009, dated 2014)
“Also recorded” adds a separate entry of the source. Where two headings read alike, the source gives them in different places.

What was measured:
[1] = test system: cleavage of E-cad in rabbit EE; assay: Acid-activated cleavage of E-cad in Ussing-chambered rabbit EE, W-blot for CTF with C-terminal antibody 4A2C7; format: cell-based
[2] = test system: rabbit EE; conditions: cited from earlier work
[3] = test system: rabbit EE; assay: Barrier breaker search: rabbit EE in U-chambers, monitoring RT (marker of PCP) and Isc; format: cell-based
From the text: Agents that increase paracellular permeability (PCP) in EE are potential contributors to GERD by enabling diffusion of luminal acid into the intercellular space. Therefore, substances were sought within the refluxate, meals and inflammation that could ‘break the barrier’. This was done by exposing rabbit EE in U-chambers to candidate inflammatory agents while both monitoring RT, as a marker of PCP, and Isc (short circuit current), as a marker of active transport. The inflammatory agents were selected based on presence in EE or on reports that they can break the barrier in other epithelia (47-60).

[4] = test system: esophagitis; conditions: patients with duodeno-esophageal reflux post-gastrectomy; cited from earlier work
[5] = test system: esophagitis; conditions: rat model of reflux; cited from earlier work
[6] = test system: rabbit EE; assay: Ca++-switch technique: junctional opening and resealing (RT) in EE; format: cell-based
From the text: Below the TJ is the adherens junction (AJ), a structure that encircles the cell and initiates and stabilizes cell-cell adhesion, and by doing so, the AJ supports the barrier function of the TJ (36, 37). The single-pass, transmembrane protein of the AJ is the Ca^++-dependent E-cadherin (E-cad) and this connects directly to a group of catenins (α-catenin, β-catenin, p120-catenin), which in turn connect E-cad to the cytoskeleton via α-catenin's interaction with actin microfilaments, to the microtubules via p120-catenin's interaction with PLEKHA7/nezha and tubulins (38, 39), and to the TJ via p120-catenin's binding to ZO-136. Cell-cell adhesion by E-cad results from the Ca^++-dependent, homotypic, association between the extracellular domains of neighboring cells. Indeed, the Ca^++ sensitivity is so characteristic that it forms the basis of the ‘Ca^++-switch technique’ where Ca^++ removal from both bathing solutions results in junctional opening (decline in RT) and its restoration results in ‘resealing’ (recovery of RT) (40). This method was used to define the role of E-cad in junctional adhesion in EE (41). Removing Ca^++ lowered RT by about 35% over 2 hrs while restoration returned RT to baseline (41). […] Further, resealing was also shown to be dependent on E-cad because it was inhibited by antibodies (HECD-1, DECMA-1) or small synthetic peptides to its extracellular (N-terminal) domain of E-cad, but not by […] antibodies (4A2C7) to its intracellular (C-terminal) domain (41).
E-cadherin is a component of the adherens junction, a structure known to be important in junctional barrier function in most epithelia, including that of the esophagus (36, 41, 121). It is a single-span, transmembrane protein whose carboxy (C)-terminus resides in the cytoplasm and whose amino (N)-terminus resides in the intercellular space. The N-terminus of E-cadherin molecules from membranes of adjacent cells form a barrier by calcium-dependent binding to each other within the intercellular space. Since the protein bridges of E-cadherin both encircle the cell membrane and support the adhesion of the bridging proteins (occludin and claudins) forming the tight junction, they play an integral role in establishing junctional (electrical) resistance and controlling junctional permeability. This role for E-cadherin in (rabbit) EE has recently been shown in the Ussing chamber using the calcium-switch technique (41).

[7] = test system: rabbit EE; assay: Junctional opening (RT) of EE by exposure to luminal HCl pH 1.6; format: cell-based; conditions: microtubule stabilizer taxol
[8] = γ-secretase inhibitor 10 μM, acid-exposed EE

Compound: C[C@H](NC(=O)Cc1cc(F)cc(F)c1)C(=O)N[C@H](C(=O)OC(C)(C)C)c1ccccc1 [DAPT75, DAPT]
- cleavage of E-cad [1, 8]: did not block cleavage
- pattern of E-cad cleavage (CTFs on W-blot) [1, 8]: yielding two CTFs instead of one

Compound: O=S(=O)(O)CCN1CCN(CCO)CC1 [HEPES]
- luminal acid-induced increase in PCP (reduction in RT) ([2]; serosal HEPES): without preventing the luminal acid-induced increase in PCP
- luminal acid-induced cell necrosis ([2]; serosal buffer replacing bathing solution bicarbonate): prevented

Compound: CNC(=O)[C@@H](NC(=O)[C@H](CC(C)C)[C@H](O)C(=O)NO)C(C)(C)C [Marimastat]
- cleavage of E-cad ([1]; Marimastat 10 μM, luminal HCl pH 1.1 for 30 min or serosal HCl pH 2.0 for 5 min): blocked; also recorded: abolition

Compound: CC(=O)Nc1ccc(C=Cc2ccc(N=C=S)cc2S(=O)(=O)O)c(S(=O)(=O)O)c1 [SITS, 4-acetoamido-4′-isothiocyanostilbene-2,2′-disulfonic acid]
- cell swelling and necrosis ([2]; serosal HCl pH 2.0, serosal pretreatment 4 mM): prevented

Compound: CCO [alcohol]
- breaks the barrier (RT as marker of PCP) ([3]; at pH 7.4): barrier breakers

Compound: CN(C)C(=O)COC(=O)Cc1ccc(OC(=O)c2ccc(NC(=N)N)cc2)cc1 [camostat mesilate]
- esophagitis [4]: reduce esophagitis
- esophagitis [5]: reduce esophagitis

Compound: COc1cc2c(c(OC)c1OC)-c1ccc(OC)c(=O)cc1[C@@H](NC(C)=O)CC2 [colchicine]
- junctional resealing during the Ca++-switch technique ([6]; microtubule destabilizer): inhibited

Compound: C=C1[C@@H](C)[C@H]2[C@H](Cc3ccccc3)NC(=O)[C@]23[C@H](OC(C)=O)/C=C/[C@@](C)(O)C(=O)[C@@H](C)C/C=C/[C@H]3[C@@H]1O [cytochalasin D]
- junctional resealing during the Ca++-switch technique ([6]; microfilament destabilizer, 2 uM): inhibited

Compound: C[C@H](CCC(=O)NCCS(=O)(=O)O)[C@H]1CC[C@H]2[C@@H]3[C@H](O)C[C@@H]4C[C@H](O)CC[C@]4(C)[C@H]3C[C@H](O)[C@]12C [taurocholic acid]
- breaks the barrier (RT as marker of PCP) ([3]; at pH 2): barrier breakers

Compound: CC(=O)O[C@H]1C(=O)[C@@]2(C)[C@H]([C@H](OC(=O)c3ccccc3)[C@]3(O)C[C@H](OC(=O)[C@H](O)[C@@H](NC(=O)c4ccccc4)c4ccccc4)C(C)=C1C3(C)C)[C@]1(OC(C)=O)CO[C@@H]1C[C@@H]2O [taxol]
- junctional opening by exposure to luminal pH 1.6 [7]: inhibit junctional opening
- junctional opening by Ca++-free soln ([6]; microtubule stabilizer, 50 μM): inhibited
- junctional resealing ([6]; taxol, data normalized at the end of junctional opening in Ca++-free solution): Inhibition of resealing

Compound: trypsin: barrier breaker at pH 7.4, can be present within refluxates of near-neutral pH
- breaks the barrier (RT as marker of PCP) ([3]; at pH 7.4): barrier breakers
- junctional damage by luminal trypsin (DIS, E-cad cleavage) ([3]; luminal exposure): results in both DIS (61) and cleavage of E-cad's extracellular domain
